Results from the supplement of paper PMC10307832.

Assays:
Assay in all cases: relative viability (nuclei count vs DMSO), 5 days (fraction); higher = more cells survive
[1] = compound: C[C@]1(c2nc3c(C(N)=O)cccc3[nH]2)CCCN1 [Veliparib] + CC(=O)c1c(C)c2cnc(Nc3ccc(N4CCNCC4)cn3)nc2n(C2CCCC2)c1=O [Palbociclib] (partner 0.5 µM)
Outline: (§1)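 Nuclei were stained with Hoechst during a one-step fixation (final 0.05% Triton X-100, 1% formaldehyde, 1 ug/ml Hoechst) carried out 5 days after dosing, then counted on 4× images. The cells, lung cancer lines in 1536-well plates, had been dosed by pin tool the day after seeding with one drug alone or a fixed anchor-drug dose plus five library-drug doses (not always all listed) in √10 steps. Relative viability is the nuclei count in treated wells divided by that in vehicle wells, and each value is the median of duplicate plates.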

[2] = compound: COC1=CC=C(C=C1)CN2C=CC3=C2C=C(C=C3)C(=O)NO + Cc1cc(Nc2cc(N3CCN(C)CC3)nc(Sc3ccc(NC(=O)C4CC4)cc3)n2)n[nH]1 [Tozasertib] (partner 0.1 µM)
Outline: as §1

[3] = compound: C[C@]1(c2nc3c(C(N)=O)cccc3[nH]2)CCCN1 [Veliparib] + CS(=O)(=O)CCNCc1ccc(-c2ccc3ncnc(Nc4ccc(OCc5cccc(F)c5)c(Cl)c4)c3c2)o1 [Lapatinib] (partner 2 µM)
Outline: as §1

[4] = compound: C[C@]1(c2nc3c(C(N)=O)cccc3[nH]2)CCCN1 [Veliparib] + O=C(c1cc(Cc2n[nH]c(=O)c3ccccc23)ccc1F)N1CCN(C(=O)C2CC2)CC1 [Olaparib] (partner 8 µM)
Outline: as §1

Cell Line SW 1573 has a relative viability ([1]; first compound 0.06325 µM) of 0.337, a relative viability ([1]; first compound 0.2 µM) of 0.431 and a relative viability ([1]; first compound 0.6325 µM) of 0.382. The relative viability ([1]; first compound 2 µM) was 0.445, the relative viability ([2]; first compound 0.253 µM) was 0.233 and the relative viability ([2]; first compound 0.8 µM) was 0.188. For the same cell line, the relative viability ([2]; first compound 2.53 µM) was 0.206, the relative viability ([2]; first compound 8 µM) was 0.157 and the relative viability ([3]; first compound 0.02 µM) was 1.04. It also gave a relative viability ([3]; first compound 0.06325 µM) of 1.02, a relative viability ([3]; first compound 0.2 µM) of 0.929 and a relative viability ([3]; first compound 0.6325 µM) of 1.05. For the same cell line, the relative viability ([3]; first compound 2 µM) was 1.04, the relative viability ([4]; first compound 0.02 µM) was 0.57 and the relative viability ([4]; first compound 0.06325 µM) was 0.428. For the same cell line, the relative viability ([4]; first compound 0.2 µM) was 0.464, the relative viability ([4]; first compound 0.6325 µM) was 0.42 and the relative viability ([4]; first compound 2 µM) was 0.442.
